For the first assay, the target named is T1, MGL (Rattus norvegicus, UniProt Q8R431).
T1 construct: one g rat brain was homogenized using a Polytron homogenizer; from tissue; host or cells: rat brain homogenate
T1 sequence (Q8R431 1-303): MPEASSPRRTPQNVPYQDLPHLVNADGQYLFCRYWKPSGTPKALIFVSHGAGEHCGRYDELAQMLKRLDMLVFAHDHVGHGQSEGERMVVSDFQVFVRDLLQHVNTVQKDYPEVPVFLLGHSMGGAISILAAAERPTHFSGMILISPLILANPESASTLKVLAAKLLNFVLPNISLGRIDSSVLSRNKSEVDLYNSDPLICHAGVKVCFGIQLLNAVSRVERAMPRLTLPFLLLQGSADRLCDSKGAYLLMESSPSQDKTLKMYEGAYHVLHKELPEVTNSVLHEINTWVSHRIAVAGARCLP
In words: 2-AG accumulation assay in rat brain homogenate. Format: biochemical. The following applies: rat brain homogenate; compound 0.01 μM; 2-AG accumulation as percent of vehicle; read-out: Rat Brain 2AG % VehCntrl (%) @ 0.01 μM.
With `O=C(c1ccccc1)N1CCN(C2CN(C(=O)c3ccc(-c4cccc(C(F)(F)F)c4)cc3)C2)CC1` [Cpd 186, 1-(Phenylcarbonyl)-4-(1-{[3′-(trifluoromethyl)biphenyl-4-yl]carbonyl}azetidin-3-yl)piperazine], the 2-AG accumulation, % of vehicle control at 0.01 µM is 123%.

The assay is the same for the next values; noted with them: rat brain homogenate; compound 0.1 μM; 2-AG accumulation as percent of vehicle; read-out: Rat Brain 2AG % VehCntrl (%) @ 0.1 μM.
With `O=C(c1ccccc1)N1CCN(C2CN(C(=O)c3ccc(-c4cccc(C(F)(F)F)c4)cc3)C2)CC1` [Cpd 186, 1-(Phenylcarbonyl)-4-(1-{[3′-(trifluoromethyl)biphenyl-4-yl]carbonyl}azetidin-3-yl)piperazine], the 2-AG accumulation, % of vehicle control at 0.1 µM stood at 199%.

The same assay, now with this note: rat brain homogenate; compound 1 μM; 2-AG accumulation as percent of vehicle; read-out: Rat Brain 2AG % VehCntrl (%) @ 1 μM.
Consider `O=C(c1cscn1)N1CCN(C2CN(C(=O)c3cc4c(C(F)(F)F)cccc4s3)C2)CC1` [Cpd 334, 1-(1,3-Thiazol-4-ylcarbonyl)-4-(1-{[4-(trifluoromethyl)-1-benzothiophen-2-yl]carbonyl}azetidin-3-yl)piperazine], for which the 2-AG accumulation, % of vehicle control at 1 µM is 259%. On the same count and under the same terms, the result for `O=C(c1ccccc1)N1CCN(C2CN(C(=O)c3ccc4c(ccn4-c4ncccn4)c3)C2)CC1` [Cpd 595, 5-({3-[4-(Phenylcarbonyl)piperazin-1-yl]azetidin-1-yl}carbonyl)-1-pyrimidin-2-yl-1H-indole] reads 128%; that for `O=C(c1ccccc1)N1CCN(C2CN(C(=O)c3ccc(-c4cccc(C(F)(F)F)c4)cc3)C2)CC1` [Cpd 186, 1-(Phenylcarbonyl)-4-(1-{[3′-(trifluoromethyl)biphenyl-4-yl]carbonyl}azetidin-3-yl)piperazine], 260%; that for `O=C(c1ccccc1)N1CCN(C2CN(C(=O)c3ccc4c(ccn4-c4ccc(F)cc4F)c3)C2)CC1` [Cpd 579, 1-(2,4-Difluorophenyl)-5-({3-[4-(phenylcarbonyl)piperazin-1-yl]azetidin-1-yl}carbonyl)-1H-indole], 265%. On the same count and under the same terms, in the case of `O=C(c1ccc2c(c1)CCN(S(=O)(=O)C1CCCCC1)C2)N1CC(N2CCN(C(=O)c3nccs3)CC2)C1` [Cpd 906] it was 896%; in that of `O=C(c1ccc2nc(-c3cccc(C(F)(F)F)c3)oc2c1)N1CC(N2CCN(C(=O)c3cscn3)CC2)C1` [Cpd 1151, 6-({3-[4-(1,3-Thiazol-4-ylcarbonyl)piperazin-1-yl]azetidin-1-yl}carbonyl)-2-[3-(trifluoromethyl)phenyl]-1,3-benzoxazole], 482%; in that of `O=C(c1ccc2c(c1)CCN(S(=O)(=O)c1ccccc1)C2)N1CC(N2CCN(C(=O)c3nccs3)CC2)C1` [Cpd 927], 850%.

`O=C(c1ccccc1)N1CCN(C2CN(C(=O)c3ccc(S(=O)(=O)c4cccc(Cl)c4)cc3)C2)CC1` [Cpd 433, 1-[1-({4-[(3-Chlorophenyl)sulfonyl]phenyl}carbonyl)azetidin-3-yl]-4-(phenylcarbonyl)piperazine]: the 2-AG accumulation, % of vehicle control at 1 µM turned out to be 159%. On the same count and under the same terms, the result for `O=C(c1ccc2c(c1)ncn2-c1ccc(C(F)(F)F)cc1)N1CC(N2CCN(C(=O)c3nccs3)CC2)C1` [Cpd 1064, 5-({3-[4-(1,3-Thiazol-2-ylcarbonyl)piperazin-1-yl]azetidin-1-yl}carbonyl)-1-[4-(trifluoromethyl)phenyl]-1H-benzimidazole] reads 570%; that for `NC(=O)c1ccc(-n2ccc3cc(C(=O)N4CC(N5CCN(C(=O)c6nccs6)CC5)C4)ccc32)cc1` [Cpd 1171], 839%; that for `O=C(c1ccc(SCc2cccc(C(F)(F)F)c2)cc1)N1CC(N2CCN(C(=O)c3nccs3)CC2)C1` [Cpd 973], 806%.

The assay is the same for the next values; noted with them: rat brain homogenate; compound 10 μM; 2-AG accumulation as percent of vehicle; read-out: Rat Brain 2AG % VehCntrl (%) @ 10 μM.
With `O=C(CCc1c(Cl)cccc1Cl)N1CC(N2CCN(C(=O)c3nccs3)CC2)C1` [Cpd 274, 1-{1-[3-(2,6-Dichlorophenyl)propanoyl]azetidin-3-yl}-4-(1,3-thiazol-2-ylcarbonyl)piperazine], the 2-AG accumulation, % of vehicle control at 10 µM is 876%. Still for that read-out and setting: the result for `CN(C)S(=O)(=O)c1ccc(-c2ccc(C(=O)N3CC(N4CCN(C(=O)c5nccs5)CC4)C3)cc2)cc1` [Cpd 213, N,N-Dimethyl-4′-({3-[4-(1,3-thiazol-2-ylcarbonyl)piperazin-1-yl]azetidin-1-yl}carbonyl)biphenyl-4-sulfonamide] reads 104%. Still for that read-out and setting: in the case of `Cc1ccc(-c2nc(C)c(C(=O)N3CC(N4CCN(C(=O)c5nccs5)CC4)C3)s2)cc1` [Cpd 135, 1-(1-{[4-Methyl-2-(4-methylphenyl)-1,3-thiazol-5-yl]carbonyl}azetidin-3-yl)-4-(1,3-thiazol-2-ylcarbonyl)piperazine] it was 592%; in that of `O=C(/C=C/c1ccc(SC(F)(F)F)cc1)N1CC(N2CCN(C(=O)c3nccs3)CC2)C1` [Cpd 283], 605%. As for `COC(=O)C=Cc1ccc(-c2ccc(C(=O)N3CC(N4CCN(C(=O)c5nccs5)CC4)C3)cc2)cc1` [Cpd 224, Methyl 3-[4′-({3-[4-(1,3-thiazol-2-ylcarbonyl)piperazin-1-yl]azetidin-1-yl}carbonyl)biphenyl-4-yl]prop-2-enoate], the 2-AG accumulation, % of vehicle control at 10 µM is 906%. On the same count and under the same terms, in the case of `O=C(c1cccc(-c2cccs2)c1)N1CC(N2CCN(C(=O)c3nccs3)CC2)C1` [Cpd 137, 1-(1,3-Thiazol-2-ylcarbonyl)-4-{1-[(3-thiophen-2-ylphenyl)carbonyl]azetidin-3-yl}piperazine] it was 441%. Still for that read-out and setting: in the case of `O=C(c1ccc(-c2ccc(F)cc2F)cc1)N1CC(N2CCN(C(=O)c3nccs3)CC2)C1` [Cpd 179, 1-{1-[(2′,4′-Difluorobiphenyl-4-yl)carbonyl]azetidin-3-yl}-4-(1,3-thiazol-2-ylcarbonyl)piperazine] it was 910%; in that of `O=C(c1ccccc1)N1CCN(C2CN(C(=O)c3ccc(-c4cccc(C(F)(F)F)c4)cc3)C2)CC1` [Cpd 186, 1-(Phenylcarbonyl)-4-(1-{[3′-(trifluoromethyl)biphenyl-4-yl]carbonyl}azetidin-3-yl)piperazine], 521%. `O=C(c1ccc2c(Br)cccc2c1)N1CC(N2CCN(C(=O)c3nccs3)CC2)C1` [Cpd 313, 1-{1-[(5-Bromonaphthalen-2-yl)carbonyl]azetidin-3-yl}-4-(1,3-thiazol-2-ylcarbonyl)piperazine]: the 2-AG accumulation, % of vehicle control at 10 µM is 814%. On the same count and under the same terms, the result for `O=C(c1ccc(-c2cccc(O)c2)cc1)N1CC(N2CCN(C(=O)c3nccs3)CC2)C1` [Cpd 218, 4′-({3-[4-(1,3-Thiazol-2-ylcarbonyl)piperazin-1-yl]azetidin-1-yl}carbonyl)biphenyl-3-ol] reads 764%; that for `COc1cccc(-c2ccc(C(=O)N3CC(N4CCN(C(=O)c5nccs5)CC4)C3)cc2)c1` [Cpd 180, 1-{1-[(3′-Methoxybiphenyl-4-yl)carbonyl]azetidin-3-yl}-4-(1,3-thiazol-2-ylcarbonyl)piperazine], 703%; that for `O=C(c1ccc(-c2ccccc2C(F)(F)F)cc1)N1CC(N2CCN(C(=O)c3nccs3)CC2)C1` [Cpd 147, 1-(1,3-Thiazol-2-ylcarbonyl)-4-(1-{[2′-(trifluoromethyl)biphenyl-4-yl]carbonyl}azetidin-3-yl)piperazine], 676%. Still for that read-out and setting: the result for `COc1cc(F)c(F)cc1-c1ccc(C(=O)N2CC(N3CCN(C(=O)c4nccs4)CC3)C2)cc1` [Cpd 214, 1-{1-[(4′,5′-Difluoro-2′-methoxybiphenyl-4-yl)carbonyl]azetidin-3-yl}-4-(1,3-thiazol-2-ylcarbonyl)piperazine] reads 769%. The same measure, in the same setting: the result for `O=C(c1ccccc1)N1CC(N2CCN(C(=O)c3ccc(-c4ccccc4)cc3)C(c3ccccc3)C2)C1` (stereo not shown) [Cpd 44, 1-(Biphenyl-4-ylcarbonyl)-2-phenyl-4-[1-(phenylcarbonyl)azetidin-3-yl]piperazine] reads 238%; that for `Cc1c(C(=O)N2CC(N3CCN(C(=O)c4ccccc4)CC3)C2)sc2ccc(Cl)cc12` [Cpd 120, 1-{1-[(5-Chloro-3-methyl-1-benzothiophen-2-yl)carbonyl]azetidin-3-yl}-4-(phenylcarbonyl)piperazine], 483%; that for `O=C(c1ccccc1)N1CCN(C2CN(C(=O)c3ccc(OCc4ccc5ccccc5c4)cc3)C2)CC1` [Cpd 380, 1-(1-{[4-(Naphthalen-2-ylmethoxy)phenyl]carbonyl}azetidin-3-yl)-4-(phenylcarbonyl)piperazine], 773%.

`O=C(c1ccccc1)N1CCN(C2CN(C(=O)c3ccc(Cc4ccccc4)s3)C2)CC1` [Cpd 321, 1-{1-[(5-Benzylthiophen-2-yl)carbonyl]azetidin-3-yl}-4-(phenylcarbonyl)piperazine]: the 2-AG accumulation, % of vehicle control at 10 µM came out at 230%. The same measure, in the same setting: the result for `O=C(c1ccccc1)N1CCN(C2CN(C(=O)c3ccc(OC4CCCCC4)cc3)C2)CC1` [Cpd 435, 1-(1-{[4-(Cyclohexyloxy)phenyl]carbonyl}azetidin-3-yl)-4-(phenylcarbonyl)piperazine] reads 198%. `COc1ccc(-c2ccc(C(=O)N3CC(N4CCN(C(=O)c5nccs5)CC4)C3)cc2)cc1C=O` [Cpd 216, 4-Methoxy-4′-({3-[4-(1,3-thiazol-2-ylcarbonyl)piperazin-1-yl]azetidin-1-yl}carbonyl)biphenyl-3-carbaldehyde]: the 2-AG accumulation, % of vehicle control at 10 µM is 625%. For `O=C(c1ccccc1)N1CCN(C2CN(C(=O)c3cc4ccc(-c5ccccc5)cc4s3)C2)CC1` [Cpd 342, 1-{1-[(6-Phenyl-1-benzothiophen-2-yl)carbonyl]azetidin-3-yl}-4-(phenylcarbonyl)piperazine], the 2-AG accumulation, % of vehicle control at 10 µM was 288%.

As for `O=C(c1ccccc1)N1CCN(C2CN(C(=O)c3ccc4c(ccn4-c4ccccc4)c3)C2)CC1` [Cpd 128, 1-Phenyl-5-({3-[4-(phenylcarbonyl)piperazin-1-yl]azetidin-1-yl}carbonyl)-1H-indole], the 2-AG accumulation, % of vehicle control at 10 µM worked out at 688%.

The values are drawn from US8362000B2, “Azetidinyl diamides as monoacylglycerol lipase inhibitors” (Janssen Pharmaceutica NV, priority 2009, dated 2013).
